# Test results taken from patent US10118930B2, “Piperidinylpyrazolopyrimidinones and their use” (BAYER PHARMA AKTIENGESELLSCHAFT, priority 2015, dated 2018).
# Where a name gives a salt, the structure may show the parent alone.
# System: clot lysis (fibrinolysis) in diluted human citrated plasma, tPA-induced
# Assay: Plasma-based clot lysis assay (5%)
# Format: biochemical
# Details: human citrated platelet-poor plasma 5%, fibrinogen 3 μM, CaCl2 10 mM, tPA 0.2 nM, 37° C., OD at 405 nm
# Summary of the method: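 Clot formation and breakdown triggered by CaCl2 (10 mM final) plus tPA (0.2 nM final) at 37° C, in 5% diluted human plasma supplemented with 3 μM fibrinogen (HEPES/NaCl/Brij buffer, pH 7). IC50 obtained from time courses relative to a blank control.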
row,Compound,IC50 [nM]
1,"Cc1nn2c(C3CCNCC3)cc(=O)[nH]c2c1C#N [Example 8, 2-Methyl-5-oxo-7-(piperidin-4-yl)-4,5-dihydropyrazolo[1,5-a]pyrimidine-3-carbonitrile trifluoroacetate]",29
2,"Cc1nn2c(C3CCNCC3)cc(=O)[nH]c2c1C(=O)O [Example 323, 2-methyl-5-oxo-7-(piperidin-4-yl)-4,5-dihydropyrazolo[1,5-a]pyrimidine-3-carboxylic acid hydrochloride]",460
3,"Cc1ccc(-c2noc(-c3cnn4c(C5CCNCC5)cc(=O)[nH]c34)n2)c(Cl)c1 [Example 130, 3-[3-(2-Chloro-4-methylphenyl)-1,2,4-oxadiazol-5-yl]-7-(piperidin-4-yl)pyrazolo[1,5-a]pyrimidin-5(4H)-one hydrochloride]",41
4,"C[C@@H]1CCN(C(=O)c2cnn3c(C4CCNCC4)cc(=O)[nH]c23)C1 [Example 321, 3-{[(3R)-3-methylpyrrolidin-1-yl]carbonyl}-7-(piperidin-4-yl)pyrazolo[1,5-a]pyrimidin-5(4H)-one hydrochloride]",82
5,"CCc1noc(-c2cnn3c(C4CCNCC4)cc(=O)[nH]c23)n1 [Example 107, 3-(3-ethyl-1,2,4-oxadiazol-5-yl)-7-(piperidin-4-yl)pyrazolo[1,5-a]pyrimidin-5(4H)-one]",49
6,"CSc1nn2c(C3CCNCC3)cc(=O)[nH]c2c1C(=O)O [Example 469, 2-(methylsulfanyl)-5-oxo-7-(piperidin-4-yl)-4,5-dihydropyrazolo[1,5-a]pyrimidine-3-carboxylic acid hydrochloride]",160
7,"C[C@@H](c1ccccc1)N(C)C(=O)c1cnn2c(C3CCNCC3)cc(=O)[nH]c12 [Example 360, N-methyl-5-oxo-N-[(1S)-1-phenylethyl]-7-(piperidin-4-yl)-4,5-dihydropyrazolo[1,5-a]pyrimidine-3-carboxamide hydrochloride]",52
8,"COc1ccccc1-c1noc(-c2cnn3c(C4CCNCC4)cc(=O)[nH]c23)n1 [Example 160, 3-[3-(2-methoxyphenyl)-1,2,4-oxadiazol-5-yl]-7-(piperidin-4-yl)pyrazolo[1,5-a]pyrimidin-5(4H)-one hydrochloride]",73
9,"O=c1cc(C2CCNCC2)n2nc(C(F)(F)F)cc2[nH]1 [Example 24, 7-(Piperidin-4-yl)-2-(trifluoromethyl)pyrazolo[1,5-a]pyrimidin-5(4H)-one hydrochloride]",59
10,"Cc1nn2c(C3CCNCC3)cc(=O)[nH]c2c1C(=O)N1CCN2CCCC2C1 (stereo not drawn) [Example 411, 3-(hexahydro-pyrrolo[1,2-a]pyrazin-2(1H)-ylcarbonyl)-2-methyl-7-(piperidin-4-yl) pyrazolo[1,5-a] pyrimidin-5(4H)-one hydrochloride]",540
11,"CC1(C)CN(Cc2cnn3c(C4CCNCC4)cc(=O)[nH]c23)CCO1 [Example 330, 3-[(2,2-dimethylmorpholin-4-yl)methyl]-7-(piperidin-4-yl)pyrazolo[1,5-a]pyrimidin-5(4H)-one hydrochloride]",110
12,"CCC(=O)N1CCN(C(=O)c2cnn3c(C4CCNCC4)cc(=O)[nH]c23)CC1 [Example 98, 7-(piperidin-4-yl)-3-[(4-propanoylpiperazin-1-yl)carbonyl]pyrazolo[1,5-a]pyrimidin-5(4H)-one hydrochloride]",90
13,"O=C(O)c1cc2[nH]c(=O)cc(C3CCNCC3)n2n1 [Example 46, 5-Oxo-7-(piperidin-4-yl)-4,5-dihydropyrazolo[1,5-a]pyrimidine-2-carboxylic acid hydrochloride]",69
14,"Cc1nn2c(C3CCNCC3)cc(=O)[nH]c2c1C(=O)OCCCF [Example 464, 3-fluoropropyl 2-methyl-5-oxo-7-(piperidin-4-yl)-4,5-dihydropyrazolo[1,5-a]pyrimidine-3-carboxylate hydrochloride]",130
15,"CN(C)Cc1cnn2c(C3CCNCC3)cc(=O)[nH]c12 [Example 342, 3-[(dimethylamino)methyl]-7-(piperidin-4-yl)pyrazolo[1,5-a]pyrimidin-5(4H)-one hydrochloride]",170
16,"O=c1cc(C2CCNCC2)n2ncc(-c3ccccc3C(F)(F)F)c2[nH]1 [Example 63, 7-(Piperidin-4-yl)-3-[2-(trifluoromethyl)phenyl]pyrazolo[1,5-a]pyrimidin-5(4H)-one hydrochloride]",40

# Further compounds by falling IC50, results first:
row,IC50 [nM],Compound
1,34,"CC(c1ccccc1)c1noc(-c2cnn3c(C4CCNCC4)cc(=O)[nH]c23)n1 (stereo not drawn) [Example 215, 3-[3-(1-phenylethyl)-1,2,4-oxadiazol-5-yl]-7-(piperidin-4-yl)pyrazolo[1,5-a]pyrimidin-5(4H)-one hydrochloride]"
2,33,"CCCN(CC)C(=O)c1cnn2c(C3CCNCC3)cc(=O)[nH]c12 [Example 96, N-ethyl-5-oxo-7-(piperidin-4-yl)-N-propyl-4,5-dihydropyrazolo[1,5-a]pyrimidine-3-carboxamide hydrochloride]"
3,32,"CN(Cc1ccccn1)C(=O)c1cnn2c(C3CCNCC3)cc(=O)[nH]c12 [Example 361, N-methyl-5-oxo-7-(piperidin-4-yl)-N-(pyridin-2-ylmethyl)-4,5-dihydropyrazolo[1,5-a]pyrimidine-3-carboxamide hydrochloride]"
4,32,"CC(C)Cc1nc(-c2cnn3c(C4CCNCC4)cc(=O)[nH]c23)no1 [Example 378, 3-(5-Isobutyl-1,2,4-oxadiazol-3-yl)-7-(piperidin-4-yl)pyrazolo[1,5-a]pyrimidin-5(4H)-one hydrochloride]"
5,32,"O=c1cc(C2CCNCC2)n2ncc(-c3cccnc3)c2[nH]1 [Example 5, 7-(Piperidin-4-yl)-3-(pyridin-3-yl)pyrazolo[1,5-a]pyrimidin-5 (4H)-one hydrochloride]"
6,31,"Cc1nn2c(C3CCNCC3)cc(=O)[nH]c2c1C(=O)N1CCC(C)CC1 [Example 416, 2-methyl-3-[(4-methyl-piperidin-1-yl)carbonyl]-7-(piperidin-4-yl) pyrazolo[1,5-a] pyrimidin-5(4H)-one hydrochloride]"
7,31,"COc1ccc(Cc2nc(-c3cnn4c(C5CCNCC5)cc(=O)[nH]c34)no2)cn1 [Example 251, 3-{5-[(6-methoxypyridin-3-yl)methyl]-1,2,4-oxadiazol-3-yl}-7-(piperidin-4-yl)pyrazolo[1,5-a]pyrimidin-5(4H)-one hydrochloride]"
8,30,"O=c1cc(C2CCNCC2)n2ncc(-c3noc(C4CCCO4)n3)c2[nH]1 (racemic) [Example 389, Rac-7-(piperidin-4-yl)-3-(5-(tetrahydrofuran-2-yl)-1,2,4-oxadiazol-3-yl)pyrazolo[1,5-a]pyrimidin-5(4H)-one hydrochloride]"
9,29,"CCNC(=O)c1c(C)nn2c(C3CCNCC3)cc(=O)[nH]c12 [Example 317, N-ethyl-2-methyl-5-oxo-7-(piperidin-4-yl)-4,5-dihydropyrazolo[1,5-a]pyrimidine-3-carboxamide hydrochloride]"
10,28,"CC1(c2nc(-c3cnn4c(C5CCNCC5)cc(=O)[nH]c34)no2)CCCC1 (racemic) [Example 386, Rac-3-[5-(1-Methylcyclopentyl)-1,2,4-oxadiazol-3-yl]-7-(piperidin-4-yl)pyrazolo[1,5-a]pyrimidin-5(4H)-one hydrochloride]"
11,26,"O=c1cc(C2CCNCC2)n2ncc(-c3noc(C=C4CCCC4)n3)c2[nH]1 [Example 384, 3-[5-(Cyclopentylidenemethyl)-1,2,4-oxadiazol-3-yl]-7-(piperidin-4-yl)pyrazolo[1,5-a]pyrimidin-5 (4H)-one hydrochloride]"
12,23,"Cc1nn2c(C3CCNCC3)cc(=O)[nH]c2c1C(=O)NC1CCC1 [Example 422, N-cyclobutyl-2-methyl-5-oxo-7-(piperidin-4-yl)-4,5-dihydro-pyrazolo[1,5-a] pyrimidine-3-carboxamide hydrochloride]"
13,23,"CC(C)CNC(=O)c1c(-c2ccccc2)nn2c(C3CCNCC3)cc(=O)[nH]c12 [Example 44, trifluoroacetate]"
14,21,"CCC(c1ccc(OC)cc1)c1nc(-c2cnn3c(C4CCNCC4)cc(=O)[nH]c23)no1 (racemic) [Example 241, 3-{5-[rac-1-(4-methoxyphenyl)propyl]-1,2,4-oxadiazol-3-yl}-7-(piperidin-4-yl)pyrazolo[1,5-a]pyrimidin-5(4H)-one hydrochloride]"
15,20,"O=c1cc(C2CCNCC2)n2ncc(-c3nnc(Cc4ccc(Cl)cc4)o3)c2[nH]1 [Example 284, 3-[5-(4-chlorobenzyl)-1,3,4-oxadiazol-2-yl]-7-(piperidin-4-yl)pyrazolo[1,5-a]pyrimidin-5(4H)-one hydrochloride]"
16,19,"NC(=O)c1c(-c2ccccc2)nn2c(C3CCNCC3)cc(=O)[nH]c12 [Example 41, 5-Oxo-2-phenyl-7-(piperidin-4-yl)-4,5-dihydropyrazolo[1,5-a]pyrimidine-3-carboxamide trifluoroacetate]"
17,18,"COc1ccc(-c2cnn3c(C4CCNCC4)cc(=O)[nH]c23)cc1OC [Example 54, 3-(3,4-Dimethoxyphenyl)-7-(piperidin-4-yl)pyrazolo[1,5-a]pyrimidin-5(4H)-one hydrochloride]"
18,14,"CC(C)CNC(=O)c1cnn2c(C3CCNCC3)cc(=O)[nH]c12 [Example 21, N-Isobutyl-5-oxo-7-(piperidin-4-yl)-4,5-dihydropyrazolo[1,5-a]pyrimidine-3-carboxamide hydrochloride]"
19,14,"COC(=O)c1cnn2c(C3CCNCC3)cc(=O)[nH]c12 [Example 357, Methyl 5-oxo-7-(piperidin-4-yl)-4,5-dihydropyrazolo[1,5-a]pyrimidine-3-carboxylate hydrochloride]"
20,9,"O=C(c1cnn2c(C3CCNCC3)cc(=O)[nH]c12)N1CCCCC1 [Example 327, 7-(piperidin-4-yl)-3-(piperidin-1-ylcarbonyl)pyrazolo[1,5-a]pyrimidin-5(4H)-one hydrochloride]"
